ChEMBL document CHEMBL3352474, “Design, synthesis and biological evaluation of FLT3 covalent inhibitors with a resorcylic acid core” (Bioorg Med Chem, 2014)

Experiments:
[1] = target: Receptor-type tyrosine-protein kinase FLT3 (Homo sapiens) (UniProt P36888)
Description: Binding affinity to FLT3 (unknown origin) assessed as dissociation half life

[2] = target: T1, Receptor-type tyrosine-protein kinase FLT3 (Homo sapiens, UniProt P36888); experiment: Inhibition of recombinant FLT3 (unknown origin) by TR-FRET assay
T1 sequence (P36888 whole entry): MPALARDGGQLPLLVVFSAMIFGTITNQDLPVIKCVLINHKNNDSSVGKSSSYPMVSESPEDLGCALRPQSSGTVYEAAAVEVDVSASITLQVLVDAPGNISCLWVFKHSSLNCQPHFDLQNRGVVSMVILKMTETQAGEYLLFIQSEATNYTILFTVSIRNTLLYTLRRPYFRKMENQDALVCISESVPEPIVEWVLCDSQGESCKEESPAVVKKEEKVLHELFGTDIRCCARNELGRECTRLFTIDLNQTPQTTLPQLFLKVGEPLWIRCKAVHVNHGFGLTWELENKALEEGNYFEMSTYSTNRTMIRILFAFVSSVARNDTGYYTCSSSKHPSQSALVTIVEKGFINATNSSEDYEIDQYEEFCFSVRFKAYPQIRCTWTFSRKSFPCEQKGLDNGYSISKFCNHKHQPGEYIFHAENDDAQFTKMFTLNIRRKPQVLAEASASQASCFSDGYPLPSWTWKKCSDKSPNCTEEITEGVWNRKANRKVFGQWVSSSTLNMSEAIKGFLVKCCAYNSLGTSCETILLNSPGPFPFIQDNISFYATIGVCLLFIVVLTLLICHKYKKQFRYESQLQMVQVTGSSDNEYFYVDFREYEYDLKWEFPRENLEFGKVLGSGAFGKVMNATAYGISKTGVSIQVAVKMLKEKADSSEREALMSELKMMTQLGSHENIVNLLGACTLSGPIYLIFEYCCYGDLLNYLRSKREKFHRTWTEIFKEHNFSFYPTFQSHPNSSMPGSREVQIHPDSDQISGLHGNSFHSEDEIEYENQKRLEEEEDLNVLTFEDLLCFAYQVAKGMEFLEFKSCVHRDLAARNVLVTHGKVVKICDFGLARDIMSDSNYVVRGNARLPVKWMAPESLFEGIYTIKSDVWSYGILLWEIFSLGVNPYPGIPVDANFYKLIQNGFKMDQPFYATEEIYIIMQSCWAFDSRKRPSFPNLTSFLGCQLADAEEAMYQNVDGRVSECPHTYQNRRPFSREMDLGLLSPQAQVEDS

[3] = target: Receptor-type tyrosine-protein kinase FLT3 (Homo sapiens, UniProt P36888, ITD); experiment: Inhibition of recombinant FLT3 ITD mutant (unknown origin) by RBC kinase assay
[4] = Antiproliferative activity against human THP1 cells assessed as growth inhibition at 5 uM after 72 hrs by luminescent cell viability assay; format: functional; settings: THP-1, 72 h, read-out: GI
[5] = system: MV4-11; experiment: Antiproliferative activity against human MV4-11 cells after 72 hrs by luminescent cell viability assay; format: functional, cell-based; settings: MV4-11, 72 h
[6] = Antiproliferative activity against human HL60 cells assessed as growth inhibition at 5 uM after 72 hrs by luminescent cell viability assay; format: functional; settings: HL-60, 72 h, read-out: GI
[7] = system: MV4-11; experiment: Antiproliferative activity against human MV4-11 cells assessed as growth inhibition at 5 uM after 72 hrs by luminescent cell viability assay; format: functional; settings: MV4-11, 72 h, read-out: GI
[8] = system: K562; experiment: Antiproliferative activity against human K562 cells assessed as growth inhibition at 5 uM after 72 hrs by luminescent cell viability assay; format: functional; settings: K562, 72 h, read-out: GI
[9] = target: MAP kinase-interacting serine/threonine-protein kinase 2 (Homo sapiens) (UniProt Q9HBH9); experiment: Inhibition of MNK2 (unknown origin) at 10 uM
[10] = target: MAP kinase-interacting serine/threonine-protein kinase 1 (Homo sapiens) (UniProt Q9BUB5); experiment: Inhibition of MNK1 (unknown origin) at 10 uM
[11] = Antiproliferative activity against human HEK293T cells assessed as growth inhibition at 5 uM after 72 hrs by luminescent cell viability assay; format: cell-based, HEK-293T; settings: read-out: GI
[12] = target: Receptor-type tyrosine-protein kinase FLT3 (Homo sapiens, UniProt P36888, D835Y); experiment: Inhibition of recombinant FLT3 D835Y mutant (unknown origin) by TR-FRET assay
[13] = Antiproliferative activity against human THP1 cells after 72 hrs by luminescent cell viability assay; format: functional, cell-based; settings: THP-1, 72 h

MAP kinase-interacting serine/threonine-protein kinase 2 (Homo sapiens), sequence (Q9HBH9 whole entry, looked up): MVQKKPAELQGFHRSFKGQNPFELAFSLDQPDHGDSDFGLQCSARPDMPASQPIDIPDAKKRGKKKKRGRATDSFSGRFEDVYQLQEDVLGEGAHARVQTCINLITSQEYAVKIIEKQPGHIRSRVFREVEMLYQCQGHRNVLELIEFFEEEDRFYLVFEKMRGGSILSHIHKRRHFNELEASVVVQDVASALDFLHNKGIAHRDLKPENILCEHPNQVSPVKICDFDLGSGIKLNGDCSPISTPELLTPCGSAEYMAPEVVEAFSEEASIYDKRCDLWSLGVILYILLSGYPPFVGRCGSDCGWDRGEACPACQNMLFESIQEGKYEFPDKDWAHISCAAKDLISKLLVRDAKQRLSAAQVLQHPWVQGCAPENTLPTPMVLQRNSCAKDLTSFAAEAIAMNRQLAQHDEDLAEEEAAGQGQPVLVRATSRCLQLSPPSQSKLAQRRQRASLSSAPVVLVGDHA
MAP kinase-interacting serine/threonine-protein kinase 1 (Homo sapiens), sequence (Q9BUB5 whole entry, looked up): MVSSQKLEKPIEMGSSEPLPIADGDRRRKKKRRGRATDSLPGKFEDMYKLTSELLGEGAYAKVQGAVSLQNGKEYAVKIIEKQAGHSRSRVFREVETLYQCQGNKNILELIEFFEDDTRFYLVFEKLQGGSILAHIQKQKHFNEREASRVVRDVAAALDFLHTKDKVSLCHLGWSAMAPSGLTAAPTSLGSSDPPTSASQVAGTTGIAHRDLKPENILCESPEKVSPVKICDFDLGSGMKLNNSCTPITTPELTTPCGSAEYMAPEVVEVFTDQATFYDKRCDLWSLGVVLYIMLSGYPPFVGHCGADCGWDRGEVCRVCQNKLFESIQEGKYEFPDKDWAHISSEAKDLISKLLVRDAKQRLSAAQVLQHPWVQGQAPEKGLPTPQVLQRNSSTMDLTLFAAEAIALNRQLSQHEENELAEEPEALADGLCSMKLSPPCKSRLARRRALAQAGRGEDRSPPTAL

SMILES | T1/2 [1] [min] | IC50 [2] [nM] | IC50 [3] [µM] | inhibition of growth at 5 µM [4] [%] | IC50 [5] [nM] | inhibition of growth at 5 µM [6] [%] | inhibition of growth at 5 µM [7] [%] | inhibition of growth at 5 µM [8] [%] | inhibition [9] [%] | inhibition [10] [%] | inhibition at 72 h, 5 µM [11] [%] | IC50 [12] [nM] | IC50 [13] [µM]
CCN(CC)CCNC(=O)c1c(C)[nH]c(/C=C2\C(=O)Nc3ccc(F)cc32)c1C | 11.3 | – | – | – | – | – | – | – | – | – | – | – | –
C=CC(=O)NC/C=C/c1cc(OCCCN2CCOCC2)cc(O)c1C(=O)OC(C)C | – | 9610 | 0.5 | 9.1 | 3740 | 8.1 | 73.9 | 23 | 6.5 | 8 | 26.5 | 2810 | 20.7
COc1cc(O)c(C(=O)OCC2CCCCC2)c(/C=C/CN2C(=O)C=CC2=O)c1 | – | 2690 | > 30 | 5.9 | 1970 | 71 | 99.8 | 85.1 | 0 | 9.7 | 6.9 | 2100 | 7.71
C=CC(=O)NC/C=C/c1cc(OCCc2ccc(F)cc2)cc(O)c1C(=O)OC(C)C | – | > 30000 | 8.31 | 23.2 | 4450 | 12.2 | 61.8 | 18.5 | 1.1 | 5.6 | 25.8 | > 30000 | > 10
COc1cc(O)c(C(=O)OC(C)C)c(CCCN2C(=O)C=CC2=O)c1 | – | 430 | 13.2 | 98.8 | 1570 | 67.9 | 99.8 | 98.9 | 2.4 | 6.2 | 13.4 | 3030 | 6.74
